What all share (type): cell-based
The subject of one assay is Hela cells. Put plainly: Cell viability assay (WST-1), Hela cells. The settings on record: WST-1, 48-72 hrs, 0.5% fetal calf serum. The protocol: (§1) Jurkat and Hela cells were cultured in RPMI and EMEM media, respectively, containing 0.5% fetal calf serum. Cells were plated in a volume of 100 μL in a 96 well format. Test compounds were included in the culture media at concentrations ranging from 1 nM to 10 μM for a period of 48-72 hrs. Cell viability was determined using the WST-1 calorimetric mitochondrial reduction assay. Briefly, 10 μL of WST-1 reagent was included in the culture well for a period of 1 to 4 hrs. The WST-1 reaction was read on a multiwell spectrophotometer as the difference in the absorbance between 450 nm and 600 nm (baseline). Absorbance was proportional to the number of living cells in the culture well. Concentration response curves and IC50 values were calculated using GraphPAD Prism graphing and curve fitting program.
For orientation: Tetrazolium assays rely on reduction of a dye to a coloured formazan, in cell work by metabolically active cells.

Assay [1] has as its system Jurkat T-cell leukemic cells. Put plainly: Cell cycle assay (Example 163), G2/M block in Jurkat cells. To be noted: 24 h, flow cytometry (PI), Table 2; for activation at 0.1 µM: Homo sapiens, Jurkat. Here is the method:
(§2) MCF-7 breast cancer cells and Jurkat T-cell leukemic cells were grown (and maintained) in EMEM and RPMI media, respectively, containing 10% fetal calf serum.
Test agents were added a concentration of 0.1 μM. Twenty-fours after test agent addition, cells were analyzed for cell cycle status as described below.
(§3) Cell cycle status was analyzed by flow cytometry. Briefly, cells were collected and washed with FACs buffer (Pharmingen) and resuspended and fixed in 1 mL of 80% ethanol for 1 hr. Cells were washed with FACs buffer and resuspended in propidium iodide(PI)/RNase staining buffer (Pharmingen). PI is a fluorescent dye that labels nucleic acids such as DNA. The fluorescence within a cell (in the presence of PI) is proportional to the amount of DNA within a cell. The cell content of DNA is an indices of status in the cell cycle. […] Cells in the S phase have DNA content that lies between these extremes.
(§4) For testing of cell cycle effects of test agents the percentage of cells within the G1 and G2/M phase were measured.
(In general: A flow cytometer gives signals particle by particle.)

Assay [2] relates to MCF-7 breast cancer cells. Put plainly: Cell cycle assay (Example 163), G2/M block in MCF-7 cells. The settings on record: flow cytometry (PI), Table 2; for activation at 1 µM: Homo sapiens, MCF7, 24 h. Here is the method: as §2
Cells were allowed to adhere for 24 hrs. After adherence, cell culture media was changed to that containing 0.5% FCS. Thirty minutes post-media change, test compounds were added at a concentration of 1 μM. Twenty-fours after test agent addition, cells were analyzed for cell cycle status as described below.
as §3, §4

A further assay deals with Jurkat cells. Put plainly: Cell viability assay (WST-1), Jurkat cells. The settings on record: Homo sapiens, WST-1, 48-72 hrs, 0.5% fetal calf serum. The protocol: as §1
Assay [3] concerns MCF-7 breast cancer cells. In words: Cell cycle assay (Example 164), G2/M block in MCF-7 cells. To be noted: for activation at 0.1 µM / IC50: Homo sapiens, MCF7; for activation at 0.1 µM: Table 4; for IC50: MCF-7, footnotes * and ** of Table 4, read-out: IC50 (footnote mark in column MCF-7 G2/M Block). Here is the method: The adherent MCF-7 breast cancer cells and NCI-H522 non small cell lung cancer cells were grown and maintained in EMEM cell culture media containing 10% fetal calf serum.
Cells were allowed to adhere for 24 hrs. After adherence, cell culture media was changed to that containing 0.5% FCS. Thirty minutes post-media change, test compounds were added at a concentration of either 1.0 or 0.1 μM (as specified in the Tables). Twenty-four hours after test agent addition, cells were analyzed for cell cycle status as described below.
as §3, with “indicator” for “indices”
as §4

Assay [4] deals with NCI-H522 non small cell lung cancer cells. Put plainly: Cell cycle assay (Example 164), G2/M block in NCI-H522 cells. To be noted: Homo sapiens; for activation at 0.1 µM: 24 h, flow cytometry (PI).

Some results are limits rather than exact numbers.

`N#Cc1ccc2c(ccn2-c2cc(O)cc(Nc3cccnc3)c2)c1` [1-[3-Hydroxy-5-(pyridin-3-ylamino)-phenyl]-1H-indole-5-carbonitrile]: in the assay on Hela cells (Homo sapiens, HeLa), the IC50 was in the range of 1000 to 30000 nM. Also, in assay [1], the activation at 0.1 µM was at least 50%. The compound further yielded an activation at 1 µM in assay [2] of under 50%.
Compound `O=C(c1cccnc1)c1cc(O)cc(-c2cccc3[nH]cc(C(=O)C(F)(F)F)c23)c1` [2,2,2-Trifluoro-1-{4-[3-hydroxy-5-(pyridine-3-carbonyl)-phenyl]-1H-indol-3-yl}-ethanone] came in with an IC50 with Hela cells (Homo sapiens, HeLa) of 1000 to 30000 nM. In assay [1], the activation at 0.1 µM was under 50%. The same compound displayed an activation at 1 µM in assay [2] of under 50%.
As to `Oc1ccc(C(O)c2cccnc2)cc1C12CC3CC(CC(C3)C1)C2` (centres unmarked) [2-Adamantan-1-yl-4-(hydroxy-pyridin-3-yl-methyl)-phenol], the IC50 with Jurkat cells was 1000 to 30000 nM; in the assay on Hela cells (Homo sapiens, HeLa), over 3000 nM. Further, the activation at 0.1 µM in assay [1] is under 50%.
Taken in the same sequence, the figures for `CC(O)(c1cccnc1)c1cc(O)cc(-c2cccc3[nH]ccc23)c1` (centres unmarked) [3-(1-Hydroxy-1-pyridin-3-yl-ethyl)-5-(1H-indol-4-yl)-phenol] were 1000 to 30000 nM, 1 to 999 nM and under 50%.
For `[O-][n+]1cccc(Nc2cc(O)cc(-c3cccc4[nH]ccc34)c2)c1` [3-(1H-Indol-4-yl)-5-(1-oxy-pyridin-3-ylamino)-phenol], the IC50 in the assay on Hela cells is 1 to 999 nM. The “Jurkat G2/M Block 0.1 μM” value in assay [1] is listed as “Y (Y indicates a 50% or greater increase in the number of cells in the G2/M phase, as compared to control)”. Further, the “MCF-7 G2/M Block 1 μM” value in assay [2] (24 h) is “Y (Y indicates a 50% or greater increase in the number of cells in the G2/M phase, as compared to control)”.
The compound `Oc1cc(Nc2ccccn2)cc(-c2cccc3[nH]ccc23)c1` [3-(1H-Indol-4-yl)-5-(pyridin-2-ylamino)-phenol] had an IC50 in the assay with Hela cells (Homo sapiens, HeLa) of 1 to 999 nM. In assay [1], this compound came in with an activation at 0.1 µM of at least 50%. The activation at 1 µM in assay [2] was under 50%.
`O=[N+]([O-])c1ccc2ccn(-c3cc(O)cc(Nc4cccnc4)c3)c2c1` [3-(6-Nitro-indol-1-yl)-5-(pyridin-3-ylamino)-phenol] came in with an IC50 with Hela cells (Homo sapiens, HeLa) of 1 to 999 nM. The compound also returned an activation at 0.1 µM in assay [1] of at least 50%.
In turn, `Oc1cc(Nc2cccnc2)cc(-c2cccc3cccnc23)c1` [3-(Pyridin-3-ylamino)-5-quinolin-8-yl-phenol] came in with an IC50 in the assay with Hela cells (Homo sapiens, HeLa) of 1000 to 30000 nM. For the same compound, in assay [1], the activation at 0.1 µM was under 50%. The activation at 1 µM in assay [2] is under 50%.
In the assay with Hela cells (Homo sapiens, HeLa), `Oc1cc(Nc2cccnc2)cc(-c2cccc3c2CCC3)c1` [3-Indan-4-yl-5-(pyridin-3-ylamino)-phenol] displayed an IC50 of 1000 to 30000 nM. The compound further came in with an activation at 0.1 µM in assay [1] of under 50%. For the same compound, in assay [2], the activation at 1 µM was under 50%.
Take `Oc1cc(Nc2cccnc2)cc(-c2ccc3c(c2)CCC3)c1` [3-Indan-5-yl-5-(pyridin-3-ylamino)-phenol]: the IC50 in the assay with Hela cells (Homo sapiens, HeLa) was 1000 to 30000 nM.
On the same count and under the same terms, under `Oc1cc(Nc2cccnc2)cc(-c2cccc(-c3ccccc3)c2)c1` [5-(Pyridin-3-ylamino)-[1,1′;3′,1″]terphenyl-3-ol] stands 1000 to 30000 nM.
The compound `Oc1cc(-c2cccc3[nH]ccc23)nc(Nc2cccnc2)n1` [6-(1H-Indol-4-yl)-2-(pyridin-3-ylamino)-pyrimidin-4-ol] came in with an IC50 with Hela cells (Homo sapiens, HeLa) of 1000 to 30000 nM. In assay [1], this compound returned an activation at 0.1 µM of at least 50%.
As to `O=C(c1ccc(Cl)nc1)c1cc(O)cc(-c2cccc3[nH]ccc23)c1` [(6-Chloro-pyridin-3-yl)-[3-hydroxy-5-(1H-indol-4-yl)-phenyl]-methanone], the IC50 in the assay on Hela cells (Homo sapiens, HeLa) was in the range of 1 to 999 nM. Further, the activation at 0.1 µM in assay [1] is at least 50%. The compound also yielded an activation at 1 µM in assay [2] of under 50%.
On to `COC(=O)Nc1cc(C(=O)c2cc(C)nc(C)c2)cc(-c2cccc3[nH]ccc23)c1` [[3-(2,6-Dimethyl-pyridine-4-carbonyl)-5-(1H-indol-4-yl)-phenyl]-carbamic acid methyl ester], for which the activation at 0.1 µM in assay [3] (24 h, flow cytometry (PI)) was at least 50%; in assay [4] (Table 4), at least 50%.
Turning to `COC(=O)Nc1cc(C(=O)c2ccnc(Cl)c2)cc(-c2cccc3[nH]ccc23)c1` [[3-(2-Chloro-pyridine-4-carbonyl)-5-(1H-indol-4-yl)-phenyl]-carbamic acid methyl ester], the activation at 0.1 µM is under 50% in assay [3] (24 h, flow cytometry (PI)) and under 50% in assay [4] (Table 4). Moreover, in assay [3], the IC50 was in the range of 500 to 5000 nM.
For `COC(=O)Nc1cc(C(=O)c2cc(C)nc(C#N)c2)cc(-c2cccc3[nH]ccc23)c1` [[3-(2-Cyano-6-methyl-pyridine-4-carbonyl)-5-(1H-indol-4-yl)-phenyl]-carbamic acid methyl ester], the activation at 0.1 µM in assay [3] (24 h, flow cytometry (PI)) is at least 50%; in assay [4] (Table 4) it was at least 50%.
With `COC(=O)Nc1cc(C(=O)c2cc(C)nc(N(C)C)c2)cc(-c2cccc3[nH]ccc23)c1` [[3-(2-Dimethylamino-6-methyl-pyridine-4-carbonyl)-5-(1H-indol-4-yl)-phenyl]-carbamic acid methyl ester], the activation at 0.1 µM in assay [3] (24 h, flow cytometry (PI)) is at least 50%; in assay [4] (Table 4), at least 50%.
Regarding `COC(=O)Nc1cc(Nc2ccc(C#N)nc2)cc(-c2cccc3[nH]ccc23)c1` [[3-(6-Cyano-pyridin-3-ylamino)-5-(1H-indol-4-yl)-phenyl]-carbamic acid methyl ester], the “MCF-7 G2/M Block 1 μM” value in assay [3] (1 μM, 24 h, flow cytometry (PI), Table 3) is given as “Y (Y indicates a 50% or greater increase in the number of cells in the G2/M phase, as compared to control)”. The activation at 0.1 µM in assay [4] (Table 3) is under 50%.
For `COC(=O)Nc1cc(C(=O)c2cccnc2)cc(-c2ccc(F)c3[nH]ccc23)c1` [[3-(7-Fluoro-1H-indol-4-yl)-5-(pyridine-3-carbonyl)-phenyl]-carbamic acid methyl ester], the activation at 0.1 µM is at least 50% in assay [3] (24 h, flow cytometry (PI)) and at least 50% in assay [4] (Table 4).
Take `COc1ccc(COc2cc(Nc3cccnc3)cc(-c3cccc4sccc34)c2)cc1` [[3-Benzo[b]thiophen-4-yl-5-(4-methoxy-benzyloxy)-phenyl]-pyridin-3-yl-amine]: the IC50 with Jurkat cells lay within 1000 to 30000 nM; with Hela cells (Homo sapiens, HeLa), 1000 to 30000 nM.
As for `COC(=O)Nc1cc(C(=O)c2ccnc(OC)c2)cc(-c2cccc3occc23)c1` [[3-Benzofuran-4-yl-5-(2-methoxy-pyridine-4-carbonyl)-phenyl]-carbamic acid methyl ester], the activation at 0.1 µM is under 50% in assay [3] (24 h, flow cytometry (PI)) and under 50% in assay [4] (Table 4). Moreover, the IC50 in assay [3] is 500 to 5000 nM; in assay [4] (H522, footnotes * and ** of Table 4, read-out: IC50 (footnote mark in H522 G2/M Block)) it was 500 to 5000 nM.
Regarding `COC(=O)Nc1cc(-c2nc3ccccc3o2)cc(-c2cccc3[nH]ccc23)c1` [[3-Benzoxazol-2-yl-5-(1H-indol-4-yl)-phenyl]-carbamic acid methyl ester], the activation at 0.1 µM was at least 50% in assay [3] (24 h, flow cytometry (PI)) and at least 50% in assay [4] (Table 4).
For the compound `CN(C)c1cc(C(=O)c2ccnc(N(C)C)c2)cc(-c2cccc3[nH]ccc23)c1` [[3-Dimethylamino-5-(1H-indol-4-yl)-phenyl]-(2-dimethylamino-pyridin-4-yl)-methanone], the activation at 0.1 µM is under 50% in assay [3] (24 h, flow cytometry (PI)) and at least 50% in assay [4] (Table 4).
In the assay with Hela cells (Homo sapiens, HeLa), `ON=C(c1cccnc1)c1cc(O)cc(-c2cccc3[nH]ccc23)c1` [[3-Hydroxy-5-(1H-indol-4-yl)-phenyl]-pyridin-3-yl-methanone oxime] returned an IC50 of 1000 to 30000 nM. In assay [1], this compound gave an activation at 0.1 µM of under 50%. In assay [2], the activation at 1 µM was under 50%.
Compound `COc1cc(-c2cccc3[nH]ccc23)nc(Nc2cccnc2)n1` [[4-(1H-Indol-4-yl)-6-methoxy-pyrimidin-2-yl]-pyridin-3-ylamine] returned an IC50 with Hela cells (Homo sapiens, HeLa) of 1000 to 30000 nM. The compound also registered an activation at 0.1 µM in assay [1] of under 50%. In assay [2], the activation at 1 µM was under 50%.

(Values after patent US20080280891A1, “Anti-cancer agents and uses thereof” (Locus Pharmaceuticals, Inc., priority 2006, published 2008).)
